# Results: ChEMBL document CHEMBL5335779, “The research progress of SARS-CoV-2 main protease inhibitors from 2020 to 2022” (Eur J Med Chem, 2023)
# What was measured:
# [1] = target: T1, Replicase polyprotein 1ab (Severe acute respiratory syndrome coronavirus 2, UniProt P0DTD1); assay: Inhibition of N-terminal 6His-tagges SARS-CoV-2 PLpro Wuhan (1524 to 1883 residues) expressed in Escherichia coli BL21(DE3) using Arg-Leu-Arg-Gly-Gly-AMC as substrate preincubated for 5 mins followed by substrate addition measured after 6 mins by fluorescence based assay
# [2] = target: T1, Replicase polyprotein 1ab; assay: Inhibition of N-terminal GST-tagged SARS-CoV-2 Main protease expressed in Escherichia coli BL21 (DE3) incubated for 10 mins by FRET analysis
# [3] = target: T1, Replicase polyprotein 1ab; assay: Inhibition of recombinant N-terminal SARS-CoV-2 Main protease expressed in Escherichia coli using MCA-AVLQSGFR-Lys(Dnp)-Lys-NH2 as substrate incubated for 1 hr by FRET assay
# [4] = target: T1, Replicase polyprotein 1ab; assay: Binding affinity to SARS-CoV-2 Main protease expressed in Escherichia coli BL21 (DE3) assessed as inhibition constant
# [5] = target: T1, Replicase polyprotein 1ab; assay: Inhibition of N-terminal GST-tagged SARS-CoV-2 Main protease expressed in Escherichia coli BL21 (DE3) using DABCYL-KTSAVLQSGFRKME-EDANS as fluorogenic substrate preincubated for 10 mins followed by compound addition and measured after 1 hr by FRET assay
# [6] = target: T1, Replicase polyprotein 1ab; assay: Inhibition of His-tagged SARS-CoV-2 Main protease BetaCoV/Wuhan/WIV04/2019 expressed in Escherichia coli BL21 (DE3) using Dabcyl-KTSAVLQ/SGFRKME(Edan) as substrate followed by compound addition by FRET assay
# SARS-CoV-2 [7] = assay: Antiviral activity against SARS-CoV-2 USA-WA1/2020 infected in Vero E6 cells assessed as reduction in viral replication incubated for 3 days by viral plaque assay; type: functional, organism-based; conditions: Severe acute respiratory syndrome coronavirus 2, USA-WA1/2020, Vero C1008, 72 h
# [8] = target: T1, Replicase polyprotein 1ab; assay: Inhibition of recombinant N-terminal GST-tagged SARS-Cov-2 Main protease
# [9] = target: T1, Replicase polyprotein 1ab; assay: Inhibition of C-terminal GST-tagged SARS-CoV-2 Main protease by using MCA-AVLQSGFR(Dnp)-Lys-NH2 as fluorogenic substrate incubated for 15 mins followed by substrate addition by spectrophotometric analysis
# [10] = Half life in Sprague-Dawley rat at 20 mg/kg, ip by LC-MS/MS analysis; type: ADME, organism-based; conditions: in vivo
# [11] = Oral bioavailability in Sprague-Dawley rat at 20 mg/kg by LC-MS/MS analysis; type: ADME, organism-based; conditions: in vivo
# [12] = Clearance in Sprague-Dawley rat at 20 mg/kg, ip by LC-MS/MS analysis; type: ADME, organism-based; conditions: in vivo
# [13] = target: T1, Replicase polyprotein 1ab; assay: Inhibition of C-terminal SARS-CoV-2 Main protease expressed in Escherichia coli using ALNDFSNSGSDVLYQPPQTSITSAVLQ/SGFRKMAFPS-NH2 as substrate preincubated for 5 mins followed by compound addition and measured after 20 mins by FRET analysis
# SARS-CoV-2 [14] = type: functional, organism-based; conditions: Severe acute respiratory syndrome coronavirus 2, Vero C1008
# [15] = target: T1, Replicase polyprotein 1ab; assay: Inhibition of full length GST-tagged SARS-CoV-2 Main protease expressed in Escherichia coli
# [16] = target: T1, Replicase polyprotein 1ab; assay: Inhibition of N-terminal His6-tagged recombinant full length SARS-CoV-2 3CLpro expressed in Escherichia coli BL21(DE3) using (KTSAVLQSGFRKME) as fluorogenic substrate preincubated with compound for 10 mins followed by substrate addition by FRET assay
# SARS-CoV-2 [17] = assay: Antiviral activity against SARS-CoV-2 infected in human Calu-3 cells assessed as reduction in viral growth; type: functional, organism-based; conditions: Severe acute respiratory syndrome coronavirus 2, Calu-3
# [18] = target: T1, Replicase polyprotein 1ab; assay: Inhibition of N-terminal full length GST-tagged SARS-CoV-2 3CLpro expressed in Escherichia coli BL21 (DE3) by using MCA-AVLQSGFR-Lys(Dnp)-Lys-NH as fluorogenic substrate preincubated with compound for 10 mins followed by substrate addition by FRET assay
# [19] = test system: Middle East respiratory syndrome-related coronavirus; assay: Antiviral activity against MERS-CoV infected in Vero E6 cells assessed as reduction in viral replication measured after 48 hrs by qRT-PCR assay; type: functional, organism-based; conditions: Vero C1008, 48 h
# [20] = Binding affinity to MERS-CoV MPro assessed as inhibition constant; set-up: species or system Middle East respiratory syndrome-related coronavirus
# SARS-CoV-2 [21] = assay: Antiviral activity against SARS-CoV-2 infected in Vero E6 cells assessed as reduction in viral replication measured after 48 hrs by qRT-PCR assay; type: functional, organism-based; conditions: Severe acute respiratory syndrome coronavirus 2, Vero C1008, 48 h
# Human coronavirus 229E = assay: Antiviral activity against HCoV-229E infected in human Huh-7 cells assessed as reduction in viral replication; type: functional, organism-based
# [22] = target: T1, Replicase polyprotein 1ab
# [23] = target: T1, Replicase polyprotein 1ab; assay: Inhibition of GST-tagged SARS-CoV-2 Main protease expressed in Escherichia coli BL21 using Dabcyl-Val-Asn-Ser-Thr-Leu-Gln-Ser-Gly-Leu-Arg-Lys-EDANS as fluorogenic substrate preincubated for 10 mins followed by substrate addition and measured after 1 hrs by FRET assay
# [24] = Half life in Sprague-Dawley rat at 20 mg/kg, po by LC-MS/MS analysis; type: ADME, organism-based; conditions: in vivo
# [25] = Clearance in Sprague-Dawley rat at 20 mg/kg, iv by LC-MS/MS analysis; type: ADME, organism-based; conditions: in vivo
compound,measurement,setting,value
CCOC(=O)[C@@H]1O[C@H]1C(=O)N(CCC(N)=O)NC(=O)[C@H](Cc1ccccc1)NC(=O)[C@H](CC(C)C)NC(=O)OCc1ccccc1,IC50,[1],960 nM
O=C(Oc1cncc(Cl)c1)c1cccs1,IC50,[2],80 nM
O=C[C@H](C[C@@H]1CCNC1=O)NC(=O)[C@@H]1[C@H]2CCC[C@H]2CN1C(=O)CCc1cc(F)cc(F)c1,IC50,[3],7 nM
Cc1c(Cl)cc(N2CCN(C(=O)c3cc(=O)[nH]c(=O)[nH]3)CC2)cc1Cl,Ki,[4],1400 nM
CC(C)(C)c1ccc(N(C(=O)CCl)C(C(=O)NC2CCCCC2)c2cccnc2)cc1 (centres undefined),IC50,[5],410 nM
O=C(N[C@@H](CC1CC1)C(=O)N[C@@H](C[C@@H]1CCNC1=O)C(O)S(=O)(=O)O)OCc1cccc(F)c1 (some centres undefined),IC50,[6],70 nM
same,EC50,SARS-CoV-2 [7],570 nM
CCN(C[C@]1(C)CN(C(=O)c2nn(C)c3c2CCc2ccccc2-3)CCC1=O)C(=O)c1nn(C)c2c1CCc1ccccc1-2,IC50,[8],750 nM
C[n+]1c2cc(N)ccc2cc2ccc(N)cc21 [EUFLAVINE],IC50,[9],5.6 µM
CC1(C)[C@@H]2[C@@H](C(=O)N[C@H](C=O)C[C@@H]3CCNC3=O)N(C(=O)COc3ccc(OC(F)(F)F)cc3)C[C@@H]21,half-life,[10],272 min
same,bioavailability,[11],78%
same,CL/F,[12],22.7 mL/min/kg
CC1(C)[C@H](C(=O)OCc2ccccc2)C2C(=O)C(Br)(Br)[C@H]2S1(=O)=O (some centres undefined),IC50,[13],700 nM
O=C(NCc1cccs1)[C@@H]1CN(C(=O)c2cccnc2)CCN1c1ccc(Cl)c(Cl)c1,EC50,SARS-CoV-2 [14],1100 nM
O=C[C@H](C[C@@H]1CCNC1=O)NC(=O)[C@H](Cc1ccccc1)NC(=O)c1cc2ccccc2[nH]1,IC50,[15],30 nM
COC(=O)CCC(CC(=O)[C@H](CC(=O)OC)NC(=O)OCc1ccccc1)C(=O)NC(C(=O)NC(CC(=O)OC)C(=O)CF)C(C)C (some centres undefined),IC50,[16],6.81 µM
O=c1c2ccccc2[se]n1-c1cccc(C(F)(F)F)c1,EC50,SARS-CoV-2 [17],840 nM
CC(C)C[C@H](NC(=O)[C@@H](NC(=O)c1ccc(Cl)cc1)C(C)C)C(=O)N[C@H](C=O)C[C@@H]1CCCNC1=O,IC50,[15],140 nM
O=c1c(O)c(-c2ccc(O)c(O)c2)oc2cc(O)c(O)c(O)c12 [QUERCETAGETIN],IC50,[18],1240 nM
O=C(NCc1cccs1)[C@@H]1CN(C(=O)CCl)CCN1c1ccc(Cl)c(Cl)c1,EC50,[19],2640 nM
same,Ki,[20],180 nM
CC(C)C[C@H](NC(=O)[C@@H](NC(=O)[C@H](C)NC(=O)C1CCCC1)C(C)C)C(=O)N[C@H](/C=C/C(=O)OCc1ccccc1)C[C@@H]1CCNC1=O,EC50,SARS-CoV-2 [21],16.8 µM
CC(C)(C)[C@H](NC(=O)C(F)(F)F)C(=O)N1C[C@H]2[C@@H]([C@H]1C(=O)N[C@@H](C[C@@H]1CCNC1=O)C(=O)c1nc3ccccc3s1)C2(C)C,IC50,Human coronavirus 229E,24 nM
NC1CC1c1ccccc1 (centres undefined),IC50,[22],8.64 µM
COc1cccc(-n2[se]c3ccccc3c2=O)c1,IC50,[23],4.08 µM
O=C(N[C@@H](Cc1ccccc1)C(=O)N[C@@H](C[C@@H]1CCNC1=O)C(O)S(=O)(=O)O)OCc1ccccc1 (some centres undefined),EC50,SARS-CoV-2 [7],2060 nM
O=C[C@H](C[C@@H]1CCNC1=O)NC(=O)[C@@H]1[C@H]2CCC[C@H]2CN1C(=O)COc1ccc(Cl)cc1Cl,bioavailability,[11],76.2%
same,half-life,[24],233 min
same,clearance,[25],17.1 mL/min/kg
